On series [1], the source says: (§1) Glibenclamide (Gb) is an oral hypoglycaemic agent of the sulfonyl urea group; however it is only sparingly soluble in water.
In series [2] the test system is albino rats, made partially diabetic by administering streptozotocin. Briefly: Hypoglycaemic action (plasma glucose level) in albino rats made partially diabetic by streptozotocin. Conditions: Gb 1.0 mg/kg, water-suspension, p.o., n=10. The format is in vivo, rat.
Text: as §1

In another series the test system is albino rats. Put plainly: Analgetic effect in albino rats, oral. The format is in vivo, rat. Conditions: Ptz alone, up to 240 mg/kg, p.o.
The conditions of series [3]: oral; background statement, species not given; cited from earlier work.
Another series has as its system human volunteers. Put plainly: Analgetic effect in human volunteers, oral. The format is in vivo. Conditions: Ptz alone, 50 mg oral.
The test system of series [4] is Streptozocin (Stz)-induced diabetic (SID) rats. Put plainly: Plasma glucose level lowering in streptozocin-induced diabetic (SID) rats. In kind it is in vivo, rat. On the procedure: Streptozocin (Stz)-induced diabetic (SID) rats were used for this study. Insulin (I, 1.0 U/kg, p.o.) produed only marginal lowering (<10%) of plasma glucose level (PGL) in SID rats. […] By contrast, purified fulvic acid-insulin compositions (0.25 U/kg+10 mg/kg, p.o.) produced a 25% lowering, and Fulvic Acid-Insulin compositions (0.5 U/kg+10 mg/kg, p.o.) produced a 38% lowering of PGL in SID rates. The effect lasted for 6 hours.

Turning to `COc1ccc(Cl)cc1C(=O)NCCc1ccc(S(=O)(=O)NC(=O)NC2CCCCC2)cc1` [Gb, Glibenclamide], the solubility in water in series [1] was 10-12%. The “blood sugar lowering effect” value in series [2] is reported as “did not exhibit any noticeable blood sugar lowering effect”.

For `CC(C)=CCN1CCC2(C)c3cc(O)ccc3CC1C2C` (stereo not shown) [Ptz, Pentazocin], the analgetic effect entry in the series on albino rats is given as “does not exhibit any analgetic effect”. For the same compound, the “bioavailability, administered orally” value in series [3] is 30-35%. In the series on human volunteers, the “analgetic effect compared with codeine” value is “effective analgetic equivalent to 60 mg of codeine”, the duration of analgesia was 120 min and the “time of onset of analgesia” value stood at 60 min.

With Insulin, the PGL lowering effect result in series [4] (insulin 0.25 U/kg p.o.) and in series [4] (insulin 0.5 U/kg p.o.) was “did not exhibit any PGL lowering effect” each time. In series [4] (insulin 1.0 U/kg, p.o.), the “lowering of plasma glucose level (PGL)” value is below 10%.

(Values after patent publication US6558712B1, “Delivery system for pharmaceutical, nutritional and cosmetic ingredients” (Natreon Inc., priority 2001, dated 2003).)
